Test results reported in patent US6613767B1, “Stable aqueous folinate solution” (Pharmachemie B.V., priority 1994, dated 2003).

Columns and labels:
[1] = normal refrigerator temperature of approximately 4° C.; cited from earlier work
[2] = Accelerated shelf life tests of sodium folinate injection, 40° C./75% RH; format: physicochemical; conditions: during autoclaving (121° C. for 7 min)
Description: Tests were carried out with sodium folinate bulk solutions of 200 ml containing 25, 100, 250 and 400 mg sodium folinate/ml respectively as indicated in Table 1. Each bulk solution was prepared with a 2% excess of sodium folinate, because during autoclaving ca. 2% folinic acid decomposes. Subsquently, 2.15 ml of each formulated solution was used to fill 2R bottles to the exclusion of air. Afterwards, the bottles were then autoclaved at 121° C. for 7 min. The bottles were thereafter stored at 40° C./75% RH (RH=relative humidity). The following analyses were carried out initially at the beginning of the test and after two weeks:
oxygen percentage in the headspace
content of folinic acid and decomposition products.
The results are summarized in the Tables 2-5 for the accelerated shelf life tests of the sodium folinate injection preparation having a content of sodium folinate of 25 mg/ml, 100 mg/ml, 250 mg/ml and 400 mg/ml, respectively. The bottles were stored at 40° C./[…] during the two week time period for the shelf life tests.

Folinic acid decomposed during autoclaving [2]	SMILES	Concentration at which crystallization takes place [1]
	Nc1nc(=O)c2c([nH]1)NCC(CNc1ccc(C(=O)N[C@@H](CCC(=O)[O-])C(=O)[O-])cc1)N2C=O.[Ca+2] (some centres unmarked) [Calcium folinate, calcium folinate]	≥ 15000 µg/mL
ca. 2%	Nc1nc(=O)c2c([nH]1)NC[C@@H](CNc1ccc(C(=O)N[C@@H](CCC(=O)O)C(=O)O)cc1)N2C=O [folinic acid]	
